The source of these data is ChEMBL document CHEMBL1132864, “Anti-AIDS agents part 41: synthesis and anti-HIV activity of 3',4'-di-o-(-)-camphanoyl-(+)-cis-khellactone (DCK) lactam analogues” (Bioorg Med Chem Lett, 2000).

In data set [1] the test system is H9. The experiment in a line: Concentration required to inhibit uninfected H9 cell growth. The format is functional, cell-based. The note with it: Homo sapiens.
Data set [2] is described as follows: Therapeutic index for inhibition of uninfected H9 cell growth to that of inhibition of HIV-1 replication in H9 lymphocyte cells; […]. The format is cell-based. The note with it: human.
Data set [3] in a line: Therapeutic index for inhibition of uninfected H9 cell growth to that of inhibition of HIV-1 replication in H9 lymphocyte cells; Precipitated in the media. The format is cell-based. The note with it: human.
Data set [4] can be described thus: Therapeutic index for inhibition of uninfected H9 cell growth to that of inhibition of HIV-1 replication in H9 lymphocyte cells. Particulars: human, H9 lymphocyte cells (uninfected and HIV-1 infected); read-out: TI; call rule not given here. The format is cell-based.
Data set [5] deals with H9. The experiment in a line: Concentration required to inhibit HIV-1 replication in H9 lymphocyte cells. The format is functional, cell-based. Particulars: Homo sapiens.
Data set [6] is described as follows: Therapeutic index for inhibition of uninfected H9 cell growth to that of inhibition of HIV-1 replication in H9 lymphocyte cells;Did not dissolve. The format is cell-based. The note with it: human.

Broadly, the IC50 is the concentration needed to halve the response being measured. The term EC50 denotes the concentration giving half of the maximal effect. High values mean lower potency in that assay, low ones higher potency in that assay.

The structures appear in SMILES notation. Some results are limits rather than exact numbers.

As to `Cc1cc(O)nc2cc(N)ccc12`, in the data set with H9 [1], inhibition was half-maximal at 104 µM (IC50). Moreover, the TI result in data set [2] is “Not Active”.

Turning to `Cc1cc(=O)n(C(=O)OC(C)(C)C)c2c3c(ccc12)OC(C)(C)C=C3`, the TI result in data set [3] is “Precipitated”.

On to `Cc1c(O)nc2c3c(ccc2c1C)OC(C)(C)[C@H](OC(=O)C12CCC(C)(C(=O)O1)C2(C)C)[C@@H]3OC(=O)C12CCC(C)(C(=O)O1)C2(C)C` (stereo partly specified), for which the selectivity ratio in data set [4] was 9100. Besides, in the data set with H9 [1], the midpoint of inhibition, the IC50, lay at 42 µM. In the data set on H9 [5], this compound gave an EC50 of 0.0046 µM.

Consider `CC1(C)Oc2ccc3ccc(=O)oc3c2[C@@H](OC(=O)C23CCC(C)(C(=O)O2)C3(C)C)[C@H]1OC(=O)C12CCC(C)(C(=O)O1)C2(C)C` (stereo partly specified), for which the selectivity ratio in data set [4] amounted to 137000.

With `Cc1cc(=O)n(C(=O)OC(C)(C)C)c2c3c(ccc12)OC(C)(C)[C@H](O)[C@@H]3O`, the TI result in data set [3] is “Precipitated”.

Regarding `Cc1cc(O)nc2c3c(ccc12)OC(C)(C)C=C3`, the TI entry in data set [6] is “Did not dissolve”.

`Cc1cc(O)nc2c3c(ccc12)OC(C)(C)[C@H](OC(=O)C12CCC(C)(C(=O)O1)C2(C)C)[C@@H]3OC(=O)C12CCC(C)(C(=O)O1)C2(C)C` (stereo partly specified): the selectivity ratio in data set [4] came to 119000. Besides, the IC50 in the data set with H9 [1] amounted to 28 µM. In addition, in the data set on H9 [5], the concentration giving a half-maximal response (EC50) is 0.00024 µM.

Consider `Cc1cc(O)nc2cc(O)ccc12`, for which half-maximal inhibition in the data set with H9 [1] (IC50) was put at 125 µM. In addition, in data set [2], the TI result is given as “Not Active”.

Consider `Cc1cc(=O)n(C(=O)OC(C)(C)C)c2c3c(ccc12)OC(C)(C)[C@H](OC(=O)C12CCC(C)(C(=O)O1)C2(C)C)[C@@H]3OC(=O)C12CCC(C)(C(=O)O1)C2(C)C` (stereo partly specified), for which the concentration for half-maximal inhibition (IC50) in the data set on H9 [1] is above 157 µM. Further, the TI entry in data set [2] is recorded as “Not Active”.
